Measured values from patent publication US5498624A, “Selected pyrazolyl derivatives” (Monsanto Company, priority 1995, dated 1996).

How the values were obtained:
Type in all cases: in vivo
[1] = test system: Septoria nodorum; test: Wheat Glume Blotch Foliar Assay, protectant (WGB Prot); conditions: application two days pre-inoculation
Description: A) Host Propagation--Winter wheat plants, cv. Caldwell, are grown in 5.7 cm^2 pots, three per pot, and maintained in a growth chamber set at 20° C., 80% RH with a 12 hour photoperiod.
B) Compound Preparation--A 1.0% stock solution of each of the compounds of the present invention is first prepared utilizing an appropriate solvent such as acetone, water or DMSO. This stock is then used to prepare the final spray solution which contains the compound at the desired dosage, eg 100 ppm and 20 ppm, acetone at 20% v/v, Tween®20 at .05% w/v, and water at about 80%. Commercial standard used is tebuconazole at equivalent rates.
C) Compound Application, Seedlings are sprayed at the two-leaf stage (GS 12) using a DeVilbiss Model 152 hand operated sprayer set at 15-20 psi. Six ml of the test solution per treatment are applied to three pots. In the protectant assay (EXAMPLE 8), the compound application is made two days pre-inoculation. In the curative assay (EXAMPLE 9), the compound is applied during a brief interruption of the disease incubation period two days post-inoculation.
D) Pathogen Production/Inoculation--The wheat glume blotch fungus, Septoria nodorum, is maintained in the pycnidial state on yeast malt agar (YMA) and transferred weekly by streaking a suspension of conidia obtained from a ten to twelve day old sporulating culture onto fresh YMA plates. The plates are incubated at 20° C. with a 12 hour photoperiod.
Test inoculum is prepared by flooding seven day old culture plates with deionized water amended with Tween®20 (0.1% v/v) and gently scraping the pycnidia to release the extruding masses of conidia. The resulting spore suspension is filtered through two layers of cheese cloth and adjusted to 4×10^6 spores/ml utilizing the Tween®20 solution.
Forty-eight hours after the compound application and prior to inoculation, the test plants are preconditioned for at least one hour in a dark growth chamber set at 20° C. and 100% RH. After the preconditioning period is over, the conidial suspension is applied to run-off using a DiVilbiss hand operated sprayer. The plants are then returned to the preconditioning chamber and incubated at the same settings for 96 hours. Light is supplied to the plants during the last twelve hours of incubation. At the end of the 96 hour period, the plants are returned to the environmental conditions under which they were grown.
E) Test Evaluation--Eight to ten days after removal from the high humidity chamber, or twelve to fourteen days after inoculation, treatments are evaluated by visually estimating the percentage of the leaf area (on the first leaf) covered with lesions. Three ratings are made on each pot which constitutes a replicate. Each replicate then receives a numerical mean by averaging the three values. Percent disease, as well as percent control values are calculated. The percent control values obtained from these assays for the compounds of the present invention are as set out in the Table below.

[2] = test system: Wheat Leaf Rust; test: Wheat Leaf Rust Foliar Assay (WLR Prot); conditions: 20 ppm foliar protectant
Description: A) Pathogen/Inoculum Production--Urediospores of previously infected plants are collected using a small vacuum device and stored in glass vials at -2° C. Just before inoculation the requisite number of vials are warmed and the spores suspended in Soltrol, a light machine oil.
(B) Host Propagation, (C) Compound Preparation and (D) Compound Application follow as per Example 1.
E) Inoculation/Incubation--To inoculate the plants, the urediospore/Soltrol suspension, adjusted to 5×10^4 spores/ml, is applied in a light coating to the foliage, and the plants are placed in a mist tent for 12 to 18 hours at 20° C. in the dark. The test can then be returned to the previous growing conditions until foliar symptoms are evident and the plants can be assessed.
F) Test Evaluation--About 7 days after the plants are removed from the mist tent, the rust lesions should be evident. Three leaves in each pot (replicate) are assessed for percent infection. Phytotoxicity and growth effects are also noted at this time.
G) Data--Follows as per Example 1.

[3] = test system: Botrytis cinerea; test: Vine Grey Mold on Berries (VGM Cur); conditions: grape berries, treated 24 hours after inoculation
Description: Vine Grey Mold on Berries (VGM Cur)--Assay is as set out above in EXAMPLE 11 except for step E) which is: Test Execution--In the curative test the berries are first inoculated as described, six per petri plate and placed in incubation. After 24 hours, the berries are temporarily removed from incubation, placed into 12-well tissue culture plates (one per well), treated, and then returned to incubation.

[4] = test system: Venturia inaequalis; test: Apple Scab Foliar Assay (ASC Prot); conditions: apple seedlings
Description: A) Host Propagation--Apple, var. McIntosh, are collected form trees in the field and stored in a cold room at 4° C. After a minimum of 60 days storage, seed are collected and germinated in vermiculite in 3 inch pots in a growth chamber set at 27° C. day and 23° C. night temperature. When seedlings have emerged and 2-3 true leaves formed, the seedling are transplanted into 4 inch square pots containing a soil medium consisting of commercial potting mix. Seedlings are grown in this medium to the 8-10 leaf stage for use in tests. Before each test, the petiole of the smallest unfolded leaf is marked, with this leaf and the immediate five older leaves sprayed and inoculated in the test. The petiole of the oldest sprayed and inoculated leaf is also marked. The marking facilitates data collection for specific leaves and identification of the application site.
B) Test Compound Preparation--Compounds of the present invention are applied to the upper and lower leaf surfaces of the identified leaves at the rate of 100 and 20 ppm using a DiVilbiss Model 152 hand sprayer. Four plants per treatment are sprayed with 12 mls of spray solution which contains 40% acetone, 59.9% water, and 0.1% Triton B1956. Nova® (myclobutanil) is used as the commercial standard. It is suspended in water and applied at equivalent rates.
C) Pathogen/Inoculum Production--Inoculum from the apple scab pathogen, Venturia inaequalis, is obtained directly by washing conidia off of scab lesions from leaves on apple seedlings or by use of previously collected conidial suspension that has been frozen in a glass vial at -80° C. Conidial suspension concentration is adjusted to approximately 1×10^5 spores/ml by dilution with a solution of 1% v/v V8 juice/water. […]
D) Test Evaluation--Phytotoxicity data, and leaf burning, etc. is collected by treatment at the time of pathogen inoculation and at disease evaluation. Disease is evaluated on day 8-12 by estimating the amount of treated leaf tissue that is covered by apple scab lesions or symptoms. […] The percentage control is calculated as in the above examples.

How did the “WGB Prot percent control” value ([1]; 20 ppm, * = averaged value) turn out when C[C@H]1CCC[C@H](c2ccccc2NC(=O)c2cn(C)nc2C(F)F)C1 (relative stereo) [Number 3, 1H-pyrazole-4-carboxamide, 3-(difluoromethyl)-1-methyl-N-[2-(3-methylcyclohexyl)phenyl]-, trans-] was run?
Its value is 79%.

What about the “WGB Prot percent control” value ([1]; 100 ppm, * = averaged value) of the same compound?
Its value is 90%.

And the “WLR Prot percent disease control” value [2]?
The value was 100%.

And the “VGM Cur percent disease control” value ([3]; 20 ppm)?
Its value is 84%.

And the “VGM Cur percent disease control” value ([3]; 50 ppm)?
The value was 90%.

And the “ASC Prot percentage control” value ([4]; 20 ppm foliar protectant)?
The value was 90%.

Cn1cc(C(=O)Nc2ccccc2[C@H]2CC[C@H](C)CC2)c(C(F)(F)F)n1 [Number 4, 1H-pyrazole-4-carboxamide, 1-methyl-N-[2-(4-methylcyclohexyl)phenyl]-3-(trifluoromethyl)-, trans-] was tested. Which “WGB Prot percent control” value ([1]; 20 ppm, * = averaged value) did it give?
The value was 81%.

And the “WGB Prot percent control” value ([1]; 100 ppm, * = averaged value)?
Its value is 97%.

And the “VGM Cur percent disease control” value ([3]; 20 ppm)?
The value was 19%.

And the “VGM Cur percent disease control” value ([3]; 50 ppm)?
Its value is 69%.

How did the “WGB Prot percent control” value ([1]; 20 ppm, * = averaged value) turn out when Cn1cc(C(=O)Nc2ccccc2[C@@H]2CCC[C@@H](C(F)(F)F)C2)c(C(F)F)n1 (relative stereo) [Number 6] was run?
The value was 70%.

What about the “WGB Prot percent control” value ([1]; 100 ppm, * = averaged value) of the same compound?
Its value is 86%.

What about the “WGB Prot percent control” value ([1]; 500 ppm, wheat) of the same compound?
Its value is 89%.

Which results are given for C[C@@H]1CCC[C@H](c2ccccc2NC(=O)c2cn(C)nc2C(F)F)C1 (relative stereo) [Number 2, 1H-pyrazole-4-carboxamide, 3-(difluoromethyl)-1-methyl-N-[2-(-3-methylcyclohexyl)phenyl]-, cis-]?
WGB Prot percent control ([1]; 20 ppm, * = averaged value): 56%; WGB Prot percent control ([1]; 100 ppm, * = averaged value): 86%; WGB Prot percent control ([1]; 500 ppm, wheat): 99%; WLR Prot percent disease control [2]: 96%; VGM Cur percent disease control ([3]; 20 ppm): 41%; VGM Cur percent disease control ([3]; 50 ppm): 82%; ASC Prot percentage control ([4]; 20 ppm foliar protectant): 58%; ASC Prot percentage control ([4]; 100 ppm foliar protectant): 99%

With Cn1cc(C(=O)Nc2ccccc2C2CCC(C)(C)CC2)c(C(F)F)n1 [Number 5, 1H-pyrazole-4-carboxamide, 3-(difluoromethyl)-N-(2-(4,4-dimethylcyclohexyl)phenyl]-1-methyl-] as the compound, how does the “WGB Prot percent control” value ([1]; 20 ppm, * = averaged value) read?
Its value is 47%.

What about the “WGB Prot percent control” value ([1]; 100 ppm, * = averaged value) of the same compound?
The value was 93%.
